The data set in a line: bromfenac in solution in the flowable mucoadhesive polymer carrier. The data set is classed as physicochemical. The note with it: by weight of the composition. From the text:
As used herein the term “retained in or carried with” or “retaining or carrying” embraces generally all ways that bromfenac can be associated with the flowable mucoadhesive polymer. For example, bromfenac can be in aqueous solution dispersed throughout the polymer. A bromfenac concentration of up to about 0.36% will be in solution mixed with or dispersed throughout the flowable mucoadhesive polymer carrier. Bromfenac can also be in suspension with the polymer depending on its concentration. For example, when bromfenac is used in an amount more than about 0.36% by weight of the composition, some of the bromfenac can be in suspension with the polymer carrier while an amount of up to about […] of bromfenac will still be in solution and mixed with the polymer carrier.

SMILES strings stand for the structures.

Take `Nc1c(CC(=O)O)cccc1C(=O)c1ccc(Br)cc1` [bromfenac]: the “bromfenac concentration in solution mixed with or dispersed throughout the polymer carrier” value is “up to 0.36%”.

These data come from US20130023575A1, “COMPOSITIONS AND METHODS FOR THE TREATMENT OF OCULAR SURFACE ALLERGIES” (priority 2011, published 2013).
